Experimental data reported in patent US20110123470A1, “NATURAL BIOACTIVE COMPOUNDS” (Aquapharm Bio-Discovery Ltd., priority 2007, published 2011).
Converted amounts (≈) assume the structure as drawn.

Tests used:
Malassezia furfur = test: Antifungal activity assay (MIC) in PDA media; assay type: cell-based; settings: for M. furfur (MIC): PDA media containing 0.2% yeast extract
Experimental: (§1) Candida albicans and Malassezia furfur were used to carry out the antifungal assay in Potato Dextrose Agar (PDA) media containing 0.2% yeast extract. The Minimum Inhibitory Concentration (MIC) was recorded (Table 1).

Candida albicans = test: Antifungal activity assay (MIC) in PDA media; assay type: cell-based; settings: for C. albicans (MIC): PDA media containing 0.2% yeast extract
Experimental: as §1

MRSA = test: Antimicrobial activity against MRSA; assay type: cell-based
[1] = tested on: anti-oxidant response element (ARE); test: Antioxidant elicitation assay (ARE-driven luciferase activity) in reporter cell line ARE32; assay type: cell-based; settings: ARE32 cells
Experimental: The cell line ARE32 was incubated with eight concentrations of P1639C and the positive control tert-butylhydroquinone (tBHQ) for 24 hours, and the luciferase activity measured (Luciferase Assay System, Promega). P1639C enhanced induction of ARE-driven luciferase activity up to 18-fold (at a concentration of 30 μM) (FIG. 2b) compared with normal cells without any oxidative induction.
The ARE comparison was also carried out between p1639C (5-hexyl-2(5H)-furanone), 4-decanolide (5-hexyl-2(3H)-furanone) and 2(5H)-furanone.

NF-κB = test: Anti-inflammatory assay: NFκB activity in TNF-α stimulated mammalian cell culture (PRINCESS NINA NFκB Assay Kit); assay type: cell-based
Experimental: (§2) Anti-inflammatory assay was carried out based on the NFκB expression and IKKβ activity. NFκB expression was tested using PRINCESS® NINA NFκB Assay Kit. P1639C and other related lactone compounds were supplemented to a mammalian cell culture in which NFκB has been stimulated by TNF-α. The assay was also coupled with an in vitro cell toxicity assay. IKKβ was tested using 5-20 mU of IKKβ, which was diluted in 50 mM Tris (pH 7.5), 0.1 mM EGTA, 1 mg/ml BSA, 0.1%, b-Mercaptoethanol. The kinase is assayed against substrate peptide (LDDRHDSGLDSMKDEEY) in a final volume of 25.5 μl containing 50 mM Tris (pH 7.5), 0.1 mM EGTA, 0.1%, b-Mercaptoethanol, 300 μM substrate peptide, 10 mM magnesium acetate and 0.005 mM [33P-g-ATP] (500-1000 cpm/pmole) and incubated for 30 mins at room temperature. Assays are stopped by addition of 50 of 0.5M (3%) orthophosphoric acid. The phosphorylated peptide was harvested on a p81 filterplate and the phosphorylation level was measured by scintillation counts.
P1639C was supplemented to the mammalian cell culture with a series of concentration at 0.001 mM, 0.002 mM, 0.005 mM, 0.01 mM, 0.02 mM, 0.05 mM, 0.1 mM, 0.2 mM and 0.5 mM. SEAP provided in the Princess NINA kit was used as a stimulatory control to show normal inflammatory response in cells, whereas BAY11-7082 at a final concentration of 5 μM was used as the positive control of inhibited NF-κB activity. The cell with TNF-α was used as the negative control. The cell response to the supplemented compounds was measured by the 450 nm emission (360 nm excitation) after addition of inactivation buffer and MUP solution.

mammalian cell culture = test: Cell viability (resazurin) coupled with the NFκB assay; assay type: cell-based; settings: concentrations of the NF-κB assay
Experimental: as §2
Cell viability was carried out by incubation of the cells with resazurin and measuring the absorption at 600 nm against a reference measurement of above 650 nm.

IKKβ = biological target: T1, IKKβ (Homo sapiens, UniProt O14920); test: IKKβ kinase assay (33P phosphorylation of substrate peptide); assay type: biochemical; settings: 50 μM
T1 sequence (O14920 1-756): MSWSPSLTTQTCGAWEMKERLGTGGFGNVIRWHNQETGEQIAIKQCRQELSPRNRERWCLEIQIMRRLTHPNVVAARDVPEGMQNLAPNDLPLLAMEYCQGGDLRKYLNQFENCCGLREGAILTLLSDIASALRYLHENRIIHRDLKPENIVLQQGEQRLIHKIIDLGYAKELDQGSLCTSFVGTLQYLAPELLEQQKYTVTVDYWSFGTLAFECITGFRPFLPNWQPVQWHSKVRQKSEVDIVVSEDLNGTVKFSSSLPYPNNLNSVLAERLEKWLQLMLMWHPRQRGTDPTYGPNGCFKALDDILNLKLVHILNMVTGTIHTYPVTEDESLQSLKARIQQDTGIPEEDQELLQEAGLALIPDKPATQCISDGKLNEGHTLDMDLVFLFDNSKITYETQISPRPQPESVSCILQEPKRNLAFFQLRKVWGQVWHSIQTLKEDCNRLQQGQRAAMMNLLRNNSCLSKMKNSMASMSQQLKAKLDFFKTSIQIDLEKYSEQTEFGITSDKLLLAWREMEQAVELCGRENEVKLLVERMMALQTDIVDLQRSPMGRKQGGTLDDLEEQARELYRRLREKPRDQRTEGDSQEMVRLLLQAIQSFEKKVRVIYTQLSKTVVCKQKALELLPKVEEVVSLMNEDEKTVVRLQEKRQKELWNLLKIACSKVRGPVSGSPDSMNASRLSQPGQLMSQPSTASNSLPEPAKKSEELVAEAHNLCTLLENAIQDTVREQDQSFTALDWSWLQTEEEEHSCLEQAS
Experimental: as §2

Experimental for human hepatocytes: The toxicology assay was carried out using an in vitro human hepatocytes model where human hepatocytes were exposed to varying concentrations of compound [MUT] as well as tamoxifen and chlorpromazine for three hours.

**Q.** What does the source list for `O=C1C=CCO1` [2(5H)-furanone]?
**A.** M. furfur (MIC) (Malassezia furfur): >10 µg; C. albicans (MIC) (Candida albicans): >10 µg; MRSA (antimicrobial activity) (MRSA): >20 µg; anti-oxidant elicitation effect (ARE-driven gene expression) ([1]; comparison of FIG. 8): did not show significant anti-oxidant elicitation effects

**Q.** With `CC1=CCOC1=O` [3-methy1-2(5H)-furanone] as the molecule, how does the “M. furfur (MIC)” value (Malassezia furfur) read?
**A.** 5 to 6 µg

**Q.** What about the “C. albicans (MIC)” value (Candida albicans) of the same molecule?
**A.** 5 to 7 µg

**Q.** What about the “MRSA (antimicrobial activity)” value (MRSA) of the same molecule?
**A.** >20 µg

**Q.** `CC1=CCC(=O)O1` [5-methyl-2(3H)-furanone] was tested. Which “M. furfur (MIC)” value (Malassezia furfur) did it give?
**A.** 5 to 7 µg

**Q.** What about the “C. albicans (MIC)” value (Candida albicans) of the same molecule?
**A.** 5 to 7 µg

**Q.** What about the “MRSA (antimicrobial activity)” value (MRSA) of the same molecule?
**A.** >20 µg

**Q.** How did the “M. furfur (MIC)” value (Malassezia furfur) turn out when `CC1C=CC(=O)O1` (stereo not drawn) [5-methyl-2(5H)-furanone] was run?
**A.** 5 to 7 µg

**Q.** What about the “C. albicans (MIC)” value (Candida albicans) of the same molecule?
**A.** 5 to 7 µg

**Q.** What about the “MRSA (antimicrobial activity)” value (MRSA) of the same molecule?
**A.** >20 µg

**Q.** What does the source list for `CCCCCCC1C=CC(=O)O1` (stereo not drawn) [P1639C, 5-hexylfuran-2(5H)-one]?
**A.** depletion of intracellular ATP (level of toxicity) (human hepatocytes): significant ATP depletion was not observed; NF-κB inhibition activity, comparison with known butenolides (NF-κB; 0.05 mM): the only active compound; inhibition of NF-κB mediated inflammatory response (NF-κB; 0.5 mM): almost fully inhibited; IC50 (NF-κB; TNF-α elicited response = 100%, read-out: concentration inhibiting 50% of the NF-κB mediated inflammatory response): 20 µM; cytotoxicity against the testing cells (mammalian cell culture): no significant cytotoxicity; IKKβ phosphorylation activity decreased to (IKKβ): 64%±2%; MIC (Malassezia furfur; Malassezia furfur, read-out: MIC against M. furfur): 0.8 µg/mL (≈ 4.76 µM); M. furfur (MIC) (Malassezia furfur): <1 µg; MIC (Candida albicans; Candida albicans, read-out: MIC against C. albicans): 1 to 1.5 µg/mL (≈ 5.94 to 8.92 µM); C. albicans (MIC) (Candida albicans): 1 to 1.5 µg; MRSA (antimicrobial activity) (MRSA): >10 µg; induction of ARE-driven luciferase activity ([1]; 30 μM, 24 hours, compared with normal cells without oxidative induction): up to 18 fold

**Q.** With `CN(C)CCCN1c2ccccc2Sc2ccc(Cl)cc21` [chlorpromazine] as the molecule, how does the “depletion of intracellular ATP (level of toxicity)” value (human hepatocytes) read?
**A.** moderate decreasing rate of intracellular ATP level

**Q.** How did the “depletion of intracellular ATP (level of toxicity)” value (human hepatocytes) turn out when `CC/C(=C(\c1ccccc1)c1ccc(OCCN(C)C)cc1)c1ccccc1` [tamoxifen] was run?
**A.** moderate decreasing rate of intracellular ATP level
